From ChEMBL document CHEMBL1130835, “Peptidyl beta-homo-aspartals: specific inhibitors of interleukin-1 beta converting enzyme and its homologues (caspases)” (Bioorg Med Chem Lett, 1998)
Values belong to the molecule of their own block, whether it stands above or below them.

What was measured:
[1] = biological target: T1, Caspase-3 (Homo sapiens, UniProt P42574); experiment: Amidolytic activity of THP.1 cell lysate against Caspase-3 using C3-Asp-AMC as a substrate at 10e -4 M concentration; NI is No Inhibition
T1 sequence (P42574 whole entry): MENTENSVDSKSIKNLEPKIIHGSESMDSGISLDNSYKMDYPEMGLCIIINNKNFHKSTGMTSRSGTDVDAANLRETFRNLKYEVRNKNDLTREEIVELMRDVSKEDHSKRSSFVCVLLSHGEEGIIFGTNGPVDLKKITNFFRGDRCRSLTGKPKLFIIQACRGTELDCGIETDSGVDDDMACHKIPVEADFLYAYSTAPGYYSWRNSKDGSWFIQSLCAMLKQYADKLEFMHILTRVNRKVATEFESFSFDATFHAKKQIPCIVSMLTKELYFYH

[2] = biological target: T2, Caspase-1 (Homo sapiens, UniProt P29466); experiment: Amidolytic activity of THP.1 cell lysate against IL-1 beta converting enzyme using C1-Asp-AMC as a substrate; assay type: cell-based
T2 sequence (P29466 whole entry): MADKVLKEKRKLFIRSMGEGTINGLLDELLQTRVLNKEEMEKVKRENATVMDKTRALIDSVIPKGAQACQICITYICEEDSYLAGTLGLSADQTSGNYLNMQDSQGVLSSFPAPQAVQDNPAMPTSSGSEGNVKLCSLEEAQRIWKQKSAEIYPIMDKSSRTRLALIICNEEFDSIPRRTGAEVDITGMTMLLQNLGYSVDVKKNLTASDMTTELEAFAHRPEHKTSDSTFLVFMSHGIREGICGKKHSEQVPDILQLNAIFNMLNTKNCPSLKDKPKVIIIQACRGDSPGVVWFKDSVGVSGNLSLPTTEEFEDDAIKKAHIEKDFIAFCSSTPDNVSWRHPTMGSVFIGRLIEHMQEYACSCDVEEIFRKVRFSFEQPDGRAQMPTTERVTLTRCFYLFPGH

[3] = biological target: T1, Caspase-3; experiment: Amidolytic activity of THP.1 cell lysate against Caspase-3 using C3-Asp-AMC as a substrate; assay type: cell-based
[4] = biological target: T2, Caspase-1; experiment: Ability to inhibit IL-1 beta converting enzyme was evaluated in LPS-stimulated human whole blood; assay type: tissue-based
[5] = biological target: T3, Papain (Carica papaya, UniProt P00784); experiment: Ability to inhibit papain was evaluated by amidolytic method using fluorogenic or chromogenic substrates
T3 sequence (P00784 whole entry): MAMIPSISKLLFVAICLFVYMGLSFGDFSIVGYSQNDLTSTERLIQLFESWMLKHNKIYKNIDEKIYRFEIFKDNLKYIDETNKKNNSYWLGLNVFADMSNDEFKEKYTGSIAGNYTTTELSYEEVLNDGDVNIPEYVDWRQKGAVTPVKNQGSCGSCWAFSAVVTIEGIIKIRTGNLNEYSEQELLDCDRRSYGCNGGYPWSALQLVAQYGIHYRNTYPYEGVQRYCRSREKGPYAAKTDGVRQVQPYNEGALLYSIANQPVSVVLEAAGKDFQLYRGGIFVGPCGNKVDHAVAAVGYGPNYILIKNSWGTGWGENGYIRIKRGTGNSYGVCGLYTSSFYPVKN

[6] = biological target: Prothrombin (Homo sapiens, UniProt P00734); experiment: Ability to inhibit Thrombin was evaluated by amidolytic method using fluorogenic or chromogenic substrates
[7] = biological target: Serine protease 1 (Homo sapiens, UniProt P07477); experiment: Ability to inhibit Trypsin was evaluated by amidolytic method using fluorogenic or chromogenic substrates
Chain of Serine protease 1 (P07477 whole entry): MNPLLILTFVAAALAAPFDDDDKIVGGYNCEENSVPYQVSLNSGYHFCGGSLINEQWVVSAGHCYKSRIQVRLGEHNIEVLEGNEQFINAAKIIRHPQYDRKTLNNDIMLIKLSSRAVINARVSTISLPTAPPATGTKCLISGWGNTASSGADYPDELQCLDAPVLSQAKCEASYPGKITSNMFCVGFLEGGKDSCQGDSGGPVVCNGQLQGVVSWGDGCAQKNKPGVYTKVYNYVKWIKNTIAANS

IC50 [5]: 0.07 µM
Compound: CC[C@H](C)[C@H](NC(=O)[C@H](CCCN=C(N)N)NC(=O)OCc1ccccc1)C(=O)N[C@H](C=O)Cc1ccccc1

IC50 [5]: 8.5 µM
Compound: CC[C@H](C)[C@H](NC(=O)[C@H](CCCN=C(N)N)NC(=O)OCc1ccccc1)C(=O)N[C@@H](C=O)Cc1ccccc1

IC50 [5]: 0.13 µM
Compound: CC(C)COC(=O)N[C@@H](Cc1ccccc1)C(=O)N[C@H](C=O)CCCNC(=N)N

IC50 [5]: 12.5 µM
Compound: CC(C)COC(=O)N[C@@H](Cc1ccccc1)C(=O)N[C@@H](C=O)CCCN=C(N)N

IC50 [5]: 65 µM
Compound: CC[C@H](C)[C@H](NC(=O)[C@H](CCCN=C(N)N)NC(=O)OCc1ccccc1)C(=O)N[C@H](CC=O)Cc1ccccc1

IC50 [6]: 5.44 µM
IC50 [7]: 1.79 µM
Compound: CC(C)(C)OC(=O)N[C@H](Cc1ccccc1)C(=O)N1CCC[C@@H]1C(=O)N[C@@H](C=O)CCCN=C(N)N

The remaining lines, values behind:

Compound: CC(=O)N[C@@H](CC(=O)O)C(=O)N[C@@H](CCC(=O)O)C(=O)N[C@H](C(=O)N[C@H](C=O)CC(=O)O)C(C)C
IC50 [1]: Not Active
IC50 [2]: 70 µM

Compound: CC(=O)N[C@@H](Cc1ccc(O)cc1)C(=O)N[C@H](C(=O)N[C@@H](C)C(=O)N[C@H](C=O)CC(=O)O)C(C)C
IC50 [3]: 190 µM
IC50 [4]: 2 µM
IC50 [2]: 68 µM

Compound: CC(C)COC(=O)N[C@@H](Cc1ccccc1)C(=O)N[C@H](CC=O)CCCNC(=N)N
IC50 [5]: 105 µM

Compound: CC(C)(C)OC(=O)N[C@H](Cc1ccccc1)C(=O)N1CCC[C@@H]1C(=O)N[C@H](CC=O)CCCN=C(N)N
IC50 [6]: 0.19 µM
IC50 [7]: 1.76 µM

Compound: CC(=O)N[C@@H](Cc1ccc(O)cc1)C(=O)N[C@H](C(=O)N[C@@H](C)C(=O)N[C@H](CC=O)CC(=O)O)C(C)C
IC50 [1]: Not Active
IC50 [4]: 2.9 µM
IC50 [2]: 142 µM

Compound: CC(=O)N[C@@H](CC(=O)O)C(=O)N[C@@H](CCC(=O)O)C(=O)N[C@H](C(=O)N[C@H](CC=O)CC(=O)O)C(C)C
IC50 [3]: 0.438 µM
IC50 [2]: 0.0223 µM

Compound: CC(C)(C)OC(=O)N[C@H](Cc1ccccc1)C(=O)N1CCC[C@@H]1C(=O)N[C@H](C=O)CCCNC(=N)N
IC50 [6]: 0.009 µM
IC50 [7]: 0.003 µM
